ChEMBL document CHEMBL1149729, “A bioassay for inhibition of serotonin release from bovine platelets” (J Nat Prod, 1992)
Counter-ions that a name gives are not always drawn.

Assays:
[1] = Antimigraine activity in human citreated platelet assessed as inhibition of [14C]serotonin release after 6 mins by scintillation counting; format: functional, cell-based; details: 0.1 h
[2] = Antimigraine activity in ADP-stimulated bovine citreated platelet assessed as inhibition of [14C]serotonin release at 100 uM after 6 mins by scintillation counting; format: functional; details: Bos taurus, 0.1 h
[3] = Antimigraine activity in bovine citreated platelet assessed as inhibition of [14C]serotonin release after 6 mins by scintillation counting; format: functional, cell-based; details: Bos taurus, 0.1 h

| Structure (SMILES) | IC50 [1] | inhibition at 100 µM [2] | IC50 [3] |
| --- | --- | --- | --- |
| C=C1C(=O)O[C@@H]2C3O[C@]3(C)CC/C=C(\C)CC[C@@H]12 (stereo not given in full) | 5.64 µM | 20.3% | – |
| COc1ccc(CCN(C)CCCC(C#N)(c2ccc(OC)c(OC)c2)C(C)C)cc1OC (stereo not given) [VERAPAMIL HYDROCHLORIDE] | 770 µM | – | 578 µM |
| C=C1C(=O)O[C@@H]2C[C@@]3(C)CCCC(=C)[C@@H]3C[C@H]12 [ISOALANTOLACTONE] | – | – | > 516 µM |
